Test results as given in ChEMBL document CHEMBL1201862, “PubChem BioAssay data set” (2004).
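Cultured in 96-well plates, cells were exposed to test compound for 48 hours across five concentrations. GI50 = concentration required for 50% inhibition of growth.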 Calls of active or inactive are those of the source. No stated cut-off is given here; in the data, active = GI50 up to about 1.1 µM and inactive = higher.

What was measured:
Test in all cases: NCI tumour cell line growth inhibition, 48 h
[1] = tested on: OVCAR-4
[2] = tested on: NCI-H522
[3] = tested on: A549
[4] = tested on: T47D
[5] = tested on: SW-620
[6] = tested on: LOX IMVI
[7] = tested on: SNB-19
[8] = tested on: SR
[9] = tested on: RPMI-8226
[10] = tested on: HT-29
[11] = tested on: EKVX
[12] = tested on: SF-268
[13] = tested on: U-251
[14] = tested on: Malme-3M
[15] = tested on: SK-OV-3
[16] = tested on: DU-145
[17] = tested on: NCI/ADR-RES
[18] = tested on: A498
[19] = tested on: MOLT-4
[20] = tested on: NCI-H226

Compound	GI50 [1]	GI50 [2]	GI50 [3]	GI50 [4]	GI50 [5]	GI50 [6]	GI50 [7]	GI50 [8]	GI50 [9]	GI50 [10]	GI50 [11]	GI50 [12]	GI50 [13]	GI50 [14]	GI50 [15]	GI50 [16]	GI50 [17]	GI50 [18]	GI50 [19]	GI50 [20]
CC(C)(C)c1ccc(O)c(CN(Cc2cc(C(C)(C)C)ccc2O)C2CCCCC2)c1	16.9 µM (inactive)	15.8 µM (inactive)	16.2 µM (inactive)	16.4 µM (inactive)	18.3 µM (inactive)	10.7 µM (inactive)	18 µM (inactive)	18.5 µM (inactive)	8.73 µM (inactive)	16.1 µM (inactive)	17.5 µM (inactive)	15.7 µM (inactive)	16.5 µM (inactive)	15.8 µM (inactive)	24.4 µM (inactive)	19.5 µM (inactive)	20.3 µM (inactive)	17.5 µM (inactive)	17.7 µM (inactive)	–
C[C@]12CCC(=O)C=C1CC[C@@H]1[C@@H]2[C@@H](O)C[C@@]2(C)[C@H]1CC[C@]2(O)C(=O)COC(=O)C1CCCC1	> 100 µM (inactive)	> 100 µM (inactive)	58.2 µM (inactive)	> 100 µM (inactive)	> 100 µM (inactive)	> 100 µM (inactive)	> 100 µM (inactive)	43.3 µM (inactive)	1.63 µM (inactive)	67.8 µM (inactive)	32.7 µM (inactive)	> 100 µM (inactive)	> 100 µM (inactive)	> 100 µM (inactive)	> 100 µM (inactive)	> 100 µM (inactive)	> 100 µM (inactive)	> 100 µM (inactive)	–	> 100 µM (inactive)
O=C1c2ccccc2C(=O)c2c1sc1nc3ccccc3n21	–	–	10.7 µM (inactive)	1.83 µM (inactive)	–	0.893 µM (active)	2.11 µM (inactive)	3.53 µM (inactive)	1.33 µM (inactive)	3.9 µM (inactive)	2.4 µM (inactive)	1.89 µM (inactive)	3.52 µM (inactive)	0.439 µM (active)	6.87 µM (inactive)	1.75 µM (inactive)	1.77 µM (inactive)	10.7 µM (inactive)	1.97 µM (inactive)	5.68 µM (inactive)
Cc1ccc(/C=C2\Cc3c(C)cc(C)cc3C2=O)c(C(=O)O)c1	34.7 µM (inactive)	78.9 µM (inactive)	49.9 µM (inactive)	82.2 µM (inactive)	47.4 µM (inactive)	22.6 µM (inactive)	44.5 µM (inactive)	29.4 µM (inactive)	19.3 µM (inactive)	45.3 µM (inactive)	33.4 µM (inactive)	40.5 µM (inactive)	29.9 µM (inactive)	72.3 µM (inactive)	–	51.5 µM (inactive)	90.6 µM (inactive)	30.1 µM (inactive)	35.5 µM (inactive)	23.8 µM (inactive)
COc1ccc(C(=O)/C=C/S/C(=N/C#N)SC)cc1	58.9 µM (inactive)	18.2 µM (inactive)	> 100 µM (inactive)	20.7 µM (inactive)	16.8 µM (inactive)	–	19.5 µM (inactive)	3.95 µM (inactive)	4.33 µM (inactive)	19.8 µM (inactive)	35.3 µM (inactive)	25.8 µM (inactive)	16.9 µM (inactive)	24.5 µM (inactive)	26.2 µM (inactive)	21.7 µM (inactive)	21.3 µM (inactive)	24.5 µM (inactive)	5.77 µM (inactive)	16.5 µM (inactive)
OCC1=C[C@@](COCc2ccccc2)(OCc2ccccc2)[C@@H](OCc2ccccc2)[C@@H]1OCc1ccccc1	21.4 µM (inactive)	11 µM (inactive)	10.5 µM (inactive)	19.3 µM (inactive)	18.5 µM (inactive)	7.31 µM (inactive)	42.8 µM (inactive)	12.2 µM (inactive)	2.49 µM (inactive)	12.7 µM (inactive)	11.7 µM (inactive)	11.6 µM (inactive)	6.59 µM (inactive)	18 µM (inactive)	–	37.6 µM (inactive)	3.61 µM (inactive)	10.9 µM (inactive)	4.57 µM (inactive)	15.5 µM (inactive)
COc1ccc(/C=C2/SC(c3ccccc3)N(NC(=O)CCCCCCCCC(=O)NN3C(=O)/C(=C\c4ccc(OC)c(OC)c4)SC3c3ccccc3)C2=O)cc1OC (centres undefined)	76.7 µM (inactive)	–	> 100 µM (inactive)	35.6 µM (inactive)	54.8 µM (inactive)	–	86.1 µM (inactive)	15.6 µM (inactive)	20.7 µM (inactive)	71.8 µM (inactive)	17.1 µM (inactive)	69.3 µM (inactive)	57.3 µM (inactive)	–	48.6 µM (inactive)	> 100 µM (inactive)	60.3 µM (inactive)	57.4 µM (inactive)	19.7 µM (inactive)	> 100 µM (inactive)
